What was measured:
Assay in all cases: pIC50, kinobeads binding competition
Conditions in all cases: cell material: Jurkat lysate
UniProt O75460 = target: UniProt O75460
UniProt P25098 = target: T1, UniProt P25098
T1 sequence (whole entry): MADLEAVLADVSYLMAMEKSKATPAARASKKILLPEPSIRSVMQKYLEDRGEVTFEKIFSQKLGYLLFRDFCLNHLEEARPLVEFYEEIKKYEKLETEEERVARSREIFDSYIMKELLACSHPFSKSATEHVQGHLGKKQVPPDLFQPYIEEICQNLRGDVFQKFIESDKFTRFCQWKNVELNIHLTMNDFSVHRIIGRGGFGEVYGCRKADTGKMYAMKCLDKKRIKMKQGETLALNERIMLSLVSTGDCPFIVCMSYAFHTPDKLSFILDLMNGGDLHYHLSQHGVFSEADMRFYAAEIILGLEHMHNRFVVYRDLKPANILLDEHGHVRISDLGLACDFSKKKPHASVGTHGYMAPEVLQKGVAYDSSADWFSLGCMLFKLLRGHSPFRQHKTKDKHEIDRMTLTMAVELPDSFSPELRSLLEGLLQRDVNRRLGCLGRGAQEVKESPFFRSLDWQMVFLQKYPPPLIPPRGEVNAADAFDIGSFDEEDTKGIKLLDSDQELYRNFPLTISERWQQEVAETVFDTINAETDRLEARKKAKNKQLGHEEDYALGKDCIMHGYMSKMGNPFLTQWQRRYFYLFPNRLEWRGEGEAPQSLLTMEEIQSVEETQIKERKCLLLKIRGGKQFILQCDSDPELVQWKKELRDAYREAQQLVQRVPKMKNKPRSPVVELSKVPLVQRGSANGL

INSR = INSR (UniProt P06213)
UniProt P52564 = target: T2, UniProt P52564
T2 sequence (whole entry): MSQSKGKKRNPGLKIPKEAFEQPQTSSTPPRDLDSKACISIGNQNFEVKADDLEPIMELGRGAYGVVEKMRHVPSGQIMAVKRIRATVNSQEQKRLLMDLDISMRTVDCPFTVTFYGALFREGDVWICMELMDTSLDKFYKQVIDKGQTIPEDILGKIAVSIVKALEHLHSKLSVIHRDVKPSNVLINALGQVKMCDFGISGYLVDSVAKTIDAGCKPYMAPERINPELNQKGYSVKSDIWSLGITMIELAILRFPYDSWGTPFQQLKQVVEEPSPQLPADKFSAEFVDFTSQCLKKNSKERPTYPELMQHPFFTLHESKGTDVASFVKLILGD

SYK = SYK (UniProt P43405)
AAK1 = AAK1 (UniProt Q2M2I8)
SLK = SLK (UniProt Q9H2G2)
PLK1 = PLK1 (UniProt P53350)
UniProt Q9HCP0 = target: UniProt Q9HCP0
TESK1 = TESK1 (UniProt Q15569)
SRPK2 = SRPK2 (UniProt P78362)
UniProt P27448 = target: UniProt P27448
UniProt Q5TCX8 = target: UniProt Q5TCX8
TNIK = TNIK (UniProt Q9UKE5)
UniProt P78527 = target: UniProt P78527
TP53RK = target: T3, TP53RK (UniProt Q96S44)
T3 sequence (whole entry): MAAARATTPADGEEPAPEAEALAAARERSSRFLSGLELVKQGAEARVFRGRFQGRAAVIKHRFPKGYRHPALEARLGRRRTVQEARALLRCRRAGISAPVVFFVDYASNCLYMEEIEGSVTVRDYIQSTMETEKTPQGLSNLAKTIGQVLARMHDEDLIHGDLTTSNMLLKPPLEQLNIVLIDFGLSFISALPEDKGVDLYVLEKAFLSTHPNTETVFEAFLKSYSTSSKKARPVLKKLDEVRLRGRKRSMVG

EPHB6 = target: T4, EPHB6 (UniProt O15197)
T4 sequence (whole entry): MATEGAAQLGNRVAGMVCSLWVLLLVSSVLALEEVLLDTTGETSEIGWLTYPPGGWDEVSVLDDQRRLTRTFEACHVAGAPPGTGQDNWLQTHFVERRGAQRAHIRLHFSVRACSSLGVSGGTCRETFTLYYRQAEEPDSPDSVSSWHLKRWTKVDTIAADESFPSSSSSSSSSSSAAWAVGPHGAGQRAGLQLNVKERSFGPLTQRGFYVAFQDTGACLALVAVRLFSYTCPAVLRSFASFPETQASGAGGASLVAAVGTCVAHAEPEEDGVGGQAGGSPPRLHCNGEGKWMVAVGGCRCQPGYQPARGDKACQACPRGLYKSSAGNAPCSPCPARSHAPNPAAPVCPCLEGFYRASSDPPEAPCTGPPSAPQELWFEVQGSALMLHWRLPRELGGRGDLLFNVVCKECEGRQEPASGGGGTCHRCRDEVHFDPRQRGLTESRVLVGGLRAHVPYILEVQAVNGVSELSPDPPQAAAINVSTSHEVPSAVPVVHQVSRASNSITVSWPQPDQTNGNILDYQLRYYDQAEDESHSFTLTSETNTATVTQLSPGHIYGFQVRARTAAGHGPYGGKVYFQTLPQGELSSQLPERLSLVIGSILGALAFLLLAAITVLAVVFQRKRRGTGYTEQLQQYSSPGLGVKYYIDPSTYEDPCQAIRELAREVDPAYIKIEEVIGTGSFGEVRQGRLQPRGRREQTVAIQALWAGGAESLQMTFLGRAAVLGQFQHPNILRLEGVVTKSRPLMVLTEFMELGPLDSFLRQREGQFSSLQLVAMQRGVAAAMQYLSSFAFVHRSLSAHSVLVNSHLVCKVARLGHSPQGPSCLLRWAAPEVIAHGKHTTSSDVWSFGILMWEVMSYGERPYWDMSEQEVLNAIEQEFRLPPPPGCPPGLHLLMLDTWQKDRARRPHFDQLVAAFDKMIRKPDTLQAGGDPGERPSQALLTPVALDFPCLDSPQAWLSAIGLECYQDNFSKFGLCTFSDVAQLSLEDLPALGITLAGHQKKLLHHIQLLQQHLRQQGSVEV

Measured: pIC50

Chain of AAK1 (Q2M2I8 whole entry, looked up): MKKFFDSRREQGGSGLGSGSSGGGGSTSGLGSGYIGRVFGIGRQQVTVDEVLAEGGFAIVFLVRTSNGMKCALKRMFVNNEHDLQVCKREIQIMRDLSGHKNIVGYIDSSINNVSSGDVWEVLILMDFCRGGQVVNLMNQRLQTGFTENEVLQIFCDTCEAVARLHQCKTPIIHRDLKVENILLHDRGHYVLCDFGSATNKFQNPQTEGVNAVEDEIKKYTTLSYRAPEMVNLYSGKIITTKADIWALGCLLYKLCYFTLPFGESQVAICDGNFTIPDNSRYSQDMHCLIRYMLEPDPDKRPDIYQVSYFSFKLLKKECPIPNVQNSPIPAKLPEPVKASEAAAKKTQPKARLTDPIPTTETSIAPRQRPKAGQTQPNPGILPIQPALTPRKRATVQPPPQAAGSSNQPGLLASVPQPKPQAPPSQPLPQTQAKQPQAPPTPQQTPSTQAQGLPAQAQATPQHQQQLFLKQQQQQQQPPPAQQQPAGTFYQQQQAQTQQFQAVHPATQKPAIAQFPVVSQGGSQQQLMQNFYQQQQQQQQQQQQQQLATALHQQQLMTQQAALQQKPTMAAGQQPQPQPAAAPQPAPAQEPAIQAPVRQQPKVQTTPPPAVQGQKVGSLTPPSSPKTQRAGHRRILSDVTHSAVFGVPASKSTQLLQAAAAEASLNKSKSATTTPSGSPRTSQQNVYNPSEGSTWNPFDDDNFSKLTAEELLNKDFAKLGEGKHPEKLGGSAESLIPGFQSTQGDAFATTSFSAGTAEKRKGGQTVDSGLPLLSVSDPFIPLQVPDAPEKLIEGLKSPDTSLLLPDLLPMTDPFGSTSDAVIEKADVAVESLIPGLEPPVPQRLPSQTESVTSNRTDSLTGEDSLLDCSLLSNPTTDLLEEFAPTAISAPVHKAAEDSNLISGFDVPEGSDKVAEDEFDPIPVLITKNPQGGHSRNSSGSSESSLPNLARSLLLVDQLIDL
Chain of UniProt P78527 (P78527 whole entry): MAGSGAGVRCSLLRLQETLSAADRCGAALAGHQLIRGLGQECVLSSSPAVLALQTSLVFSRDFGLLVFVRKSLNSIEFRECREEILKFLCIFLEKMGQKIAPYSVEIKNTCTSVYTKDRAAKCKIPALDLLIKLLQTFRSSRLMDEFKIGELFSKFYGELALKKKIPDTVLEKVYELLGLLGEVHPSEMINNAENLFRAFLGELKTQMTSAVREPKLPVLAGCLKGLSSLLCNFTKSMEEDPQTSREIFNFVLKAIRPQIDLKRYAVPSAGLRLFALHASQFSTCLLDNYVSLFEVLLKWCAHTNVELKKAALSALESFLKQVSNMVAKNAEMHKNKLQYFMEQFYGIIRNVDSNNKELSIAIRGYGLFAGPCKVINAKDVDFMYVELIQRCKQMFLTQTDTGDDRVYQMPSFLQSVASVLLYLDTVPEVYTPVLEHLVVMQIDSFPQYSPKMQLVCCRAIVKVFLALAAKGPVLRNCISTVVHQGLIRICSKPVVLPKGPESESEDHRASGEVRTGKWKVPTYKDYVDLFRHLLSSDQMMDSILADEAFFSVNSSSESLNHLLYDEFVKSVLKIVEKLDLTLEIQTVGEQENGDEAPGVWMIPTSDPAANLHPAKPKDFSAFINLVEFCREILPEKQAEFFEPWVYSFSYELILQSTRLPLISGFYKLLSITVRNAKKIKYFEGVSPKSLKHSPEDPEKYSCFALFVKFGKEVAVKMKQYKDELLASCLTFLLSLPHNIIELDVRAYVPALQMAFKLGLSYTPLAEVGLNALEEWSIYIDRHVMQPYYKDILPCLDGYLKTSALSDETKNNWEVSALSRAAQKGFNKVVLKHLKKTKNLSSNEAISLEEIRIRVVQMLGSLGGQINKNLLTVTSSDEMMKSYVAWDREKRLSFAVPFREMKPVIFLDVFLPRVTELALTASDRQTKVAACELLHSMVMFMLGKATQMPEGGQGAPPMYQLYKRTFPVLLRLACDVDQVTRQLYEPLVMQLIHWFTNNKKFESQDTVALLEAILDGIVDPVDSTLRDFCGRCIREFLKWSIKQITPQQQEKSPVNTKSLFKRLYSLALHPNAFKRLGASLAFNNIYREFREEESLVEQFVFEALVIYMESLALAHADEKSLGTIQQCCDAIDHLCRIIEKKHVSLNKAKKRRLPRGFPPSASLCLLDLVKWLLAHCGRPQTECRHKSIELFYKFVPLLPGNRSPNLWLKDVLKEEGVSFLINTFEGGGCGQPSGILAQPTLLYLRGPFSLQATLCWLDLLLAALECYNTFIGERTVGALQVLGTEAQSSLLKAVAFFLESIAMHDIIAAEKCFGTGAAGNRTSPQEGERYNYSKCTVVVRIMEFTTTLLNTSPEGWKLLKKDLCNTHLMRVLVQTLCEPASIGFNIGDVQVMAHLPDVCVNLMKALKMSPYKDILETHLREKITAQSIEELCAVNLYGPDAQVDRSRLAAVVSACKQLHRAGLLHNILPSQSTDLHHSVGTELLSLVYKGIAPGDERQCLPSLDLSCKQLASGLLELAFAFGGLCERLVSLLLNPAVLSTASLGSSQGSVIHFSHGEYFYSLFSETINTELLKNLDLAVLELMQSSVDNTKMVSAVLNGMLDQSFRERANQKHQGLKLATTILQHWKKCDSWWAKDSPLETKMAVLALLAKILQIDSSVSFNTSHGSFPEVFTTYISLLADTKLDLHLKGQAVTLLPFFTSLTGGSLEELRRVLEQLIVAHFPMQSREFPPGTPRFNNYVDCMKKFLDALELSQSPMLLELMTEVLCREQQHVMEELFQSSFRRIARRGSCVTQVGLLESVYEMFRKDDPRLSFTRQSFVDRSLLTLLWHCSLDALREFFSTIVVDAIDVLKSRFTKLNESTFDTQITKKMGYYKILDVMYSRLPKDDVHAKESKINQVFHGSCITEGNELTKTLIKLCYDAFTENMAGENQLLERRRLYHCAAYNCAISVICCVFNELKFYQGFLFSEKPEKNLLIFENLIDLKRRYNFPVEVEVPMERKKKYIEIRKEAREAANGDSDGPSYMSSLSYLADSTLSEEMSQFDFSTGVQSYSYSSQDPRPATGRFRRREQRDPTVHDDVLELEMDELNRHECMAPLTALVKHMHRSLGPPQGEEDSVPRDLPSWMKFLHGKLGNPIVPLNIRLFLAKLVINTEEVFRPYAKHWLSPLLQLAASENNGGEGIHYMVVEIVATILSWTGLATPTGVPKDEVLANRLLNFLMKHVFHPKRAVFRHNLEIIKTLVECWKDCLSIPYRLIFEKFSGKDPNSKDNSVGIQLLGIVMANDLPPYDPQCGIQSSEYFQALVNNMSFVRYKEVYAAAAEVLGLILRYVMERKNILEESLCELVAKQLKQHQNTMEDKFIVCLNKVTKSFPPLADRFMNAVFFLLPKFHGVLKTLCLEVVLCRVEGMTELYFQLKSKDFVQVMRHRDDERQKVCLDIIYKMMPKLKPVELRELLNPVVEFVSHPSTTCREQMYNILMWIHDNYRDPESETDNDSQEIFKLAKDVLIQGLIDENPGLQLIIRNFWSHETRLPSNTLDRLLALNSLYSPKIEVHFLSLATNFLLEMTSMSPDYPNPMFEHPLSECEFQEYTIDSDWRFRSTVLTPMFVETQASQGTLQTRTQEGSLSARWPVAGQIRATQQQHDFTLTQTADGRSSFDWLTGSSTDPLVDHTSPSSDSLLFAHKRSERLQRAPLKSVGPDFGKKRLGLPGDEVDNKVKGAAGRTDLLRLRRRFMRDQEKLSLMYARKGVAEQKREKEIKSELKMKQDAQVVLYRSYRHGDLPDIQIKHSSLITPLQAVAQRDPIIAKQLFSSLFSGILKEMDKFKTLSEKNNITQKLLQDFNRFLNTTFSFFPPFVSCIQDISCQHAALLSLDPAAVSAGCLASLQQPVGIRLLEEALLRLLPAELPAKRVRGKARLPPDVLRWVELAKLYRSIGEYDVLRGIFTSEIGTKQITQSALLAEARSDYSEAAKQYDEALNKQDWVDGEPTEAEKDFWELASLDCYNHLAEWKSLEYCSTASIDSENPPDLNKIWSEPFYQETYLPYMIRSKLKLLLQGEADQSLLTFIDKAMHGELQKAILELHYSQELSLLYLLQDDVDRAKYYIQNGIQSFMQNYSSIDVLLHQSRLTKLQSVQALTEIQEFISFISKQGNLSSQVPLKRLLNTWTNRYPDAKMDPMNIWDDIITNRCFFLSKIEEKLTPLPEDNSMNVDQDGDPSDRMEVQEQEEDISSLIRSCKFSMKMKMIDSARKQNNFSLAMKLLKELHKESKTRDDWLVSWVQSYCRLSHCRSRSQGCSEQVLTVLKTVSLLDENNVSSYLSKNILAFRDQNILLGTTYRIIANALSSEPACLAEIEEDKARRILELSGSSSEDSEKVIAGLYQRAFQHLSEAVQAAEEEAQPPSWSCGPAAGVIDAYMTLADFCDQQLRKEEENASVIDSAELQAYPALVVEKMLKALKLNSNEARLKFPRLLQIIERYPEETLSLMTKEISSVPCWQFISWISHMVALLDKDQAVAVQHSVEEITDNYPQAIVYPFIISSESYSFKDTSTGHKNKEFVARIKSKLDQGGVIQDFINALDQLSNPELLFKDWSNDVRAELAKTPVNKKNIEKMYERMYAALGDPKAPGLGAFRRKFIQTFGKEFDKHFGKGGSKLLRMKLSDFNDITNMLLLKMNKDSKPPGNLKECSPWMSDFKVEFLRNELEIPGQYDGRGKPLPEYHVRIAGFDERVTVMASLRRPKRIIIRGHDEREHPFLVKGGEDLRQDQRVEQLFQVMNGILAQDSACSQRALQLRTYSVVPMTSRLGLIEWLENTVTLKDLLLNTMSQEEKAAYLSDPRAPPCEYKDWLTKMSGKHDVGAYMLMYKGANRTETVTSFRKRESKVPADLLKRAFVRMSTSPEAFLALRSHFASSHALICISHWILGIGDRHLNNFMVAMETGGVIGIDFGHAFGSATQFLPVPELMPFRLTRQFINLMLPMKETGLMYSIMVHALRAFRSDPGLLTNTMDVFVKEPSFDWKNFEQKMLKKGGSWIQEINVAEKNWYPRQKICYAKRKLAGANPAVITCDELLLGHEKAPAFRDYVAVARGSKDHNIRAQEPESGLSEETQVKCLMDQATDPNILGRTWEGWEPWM

CCc1cnn2c(NCc3ccc[n+]([O-])c3)cc(N3CCCC[C@H]3CCO)nc12 [dinaciclib]
< 4.52: UniProt O75460 | UniProt P25098 | INSR | UniProt P52564 | SYK | AAK1 | SLK | PLK1 | UniProt Q9HCP0 | TESK1 | SRPK2 | UniProt P27448 | UniProt Q5TCX8 | TNIK | UniProt P78527 | TP53RK | EPHB6

From the supplement of paper PMC12076712
